Data on 24 compounds can be found in patent publication US20050245511A1, “Novel compounds that inhibit tryptase activity” (Morphochem AG, priority 1999, published 2005).

Counter-ions that a name gives are not always drawn. Some results are limits rather than exact numbers.

Test [1] addresses human recombinant tryptase (Homo sapiens, UniProt Q15661). Briefly: inhibition of the amidolytic activity of tryptase, chromogenic peptide substrate. The format is biochemical. The note with it: 2.8 nM human recombinant tryptase, Hepes buffer pH 7.8, 200 nM heparin, substrate tosyl-glycyl-prolyl-lysine-4-nitranilide acetate, room temperature. The procedure: (§1) To show the inhibition of the catalytic activity of tryptase one may use chromogenic peptide substrates. The inhibition of the amidolytic activity of tryptase by the compounds described above was shown as follows. The measurements were carried out at room temperature in microtiter plates. The compounds were dissolved in dimethylsulfoxide and 5 μl of this solution were added to a 2.8 nM solution of human recombinant tryptase in a Hepes buffer (pH: 7.8 In analogy to example 1 and using 100 mM Hepes, 140 mM NaCl, 0.1% PEG 6000, 0.05% Tween 80 and 200 nM heparin). Finally 750 μM of tosyl-glycyl-prolyl-lysine-4-nitranilide acetate in Hepes buffer were added and the hydrolysis of the substrate was followed with a spektrophometer. The same method but using N-methoxycarbonyl-D-norleucyl-glycyl-L-arginine-4-nitroanilide acetate as substrate was used to determine the inhibition of the proteolytic activity of factor Xa, i.e., another serin protease, by the compounds.

The next test has as its target factor Xa (Homo sapiens, UniProt P00742). Description: inhibition of the proteolytic activity of factor Xa, chromogenic peptide substrate. Type of test: biochemical. To be noted: same method, substrate N-methoxycarbonyl-D-norleucyl-glycyl-L-arginine-4-nitroanilide acetate. The procedure: as §1

Sequence of human recombinant tryptase (Q15661 31-275): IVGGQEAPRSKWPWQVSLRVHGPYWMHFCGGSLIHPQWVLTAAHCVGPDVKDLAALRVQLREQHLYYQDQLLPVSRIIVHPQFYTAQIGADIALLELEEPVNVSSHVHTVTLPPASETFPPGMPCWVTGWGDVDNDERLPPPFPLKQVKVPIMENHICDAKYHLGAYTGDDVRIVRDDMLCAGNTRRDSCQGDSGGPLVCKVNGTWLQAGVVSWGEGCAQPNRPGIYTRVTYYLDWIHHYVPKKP
Sequence of factor Xa (P00742 235-488 limits assumed): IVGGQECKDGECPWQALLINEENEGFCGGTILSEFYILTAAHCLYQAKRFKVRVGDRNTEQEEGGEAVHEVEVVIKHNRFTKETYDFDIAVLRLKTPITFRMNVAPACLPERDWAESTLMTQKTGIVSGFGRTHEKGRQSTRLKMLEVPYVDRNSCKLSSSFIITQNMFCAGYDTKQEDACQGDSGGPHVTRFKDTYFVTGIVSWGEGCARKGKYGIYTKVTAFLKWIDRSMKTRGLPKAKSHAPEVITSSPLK
Sequence of factor Xa (P00742 41-179 partner limits assumed): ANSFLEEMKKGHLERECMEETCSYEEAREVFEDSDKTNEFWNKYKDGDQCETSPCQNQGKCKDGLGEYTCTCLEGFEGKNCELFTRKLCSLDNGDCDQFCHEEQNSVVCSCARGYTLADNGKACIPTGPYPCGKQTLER

By IC50 is commonly meant the concentration that inhibits the measured activity by half. `CC(C)C(NC(=O)CNc1cccc(C(=N)N)c1)C(=O)NCCc1c[nH]c2ccccc12` (stereo not drawn) [Example 12, 2-{[({3-[amino(imino)methyl]phenyl}amino)acetyl]amino}-N-[2-(1H-indol-3-yl)ethyl]-3-methylbutanamide hydrochloride]: the IC50 is under 90 nM in test [1] and 14.5 µM against factor Xa.
In the case of `CC(Nc1cccc(C(=N)N)c1)C(=O)NCC(=O)NCCc1c[nH]c2ccccc12` (stereo not drawn) [Example 3, 2-({3-[amino(imino)methyl]phenyl}amino)-N-(2-{[2-(1H-indol-3-yl)ethyl]amino}-2-oxoethyl)propanamide hydrochloride], the values for the 50% inhibitory concentration (IC50) (in test [1]; at factor Xa) were under 90 nM and 21.9 µM, respectively.
In the same order, the values of `N=C(N)c1cccc(NC(CO)C(=O)NCC(=O)N2CCc3ccccc3C2)c1` (stereo not drawn) [Example 15, 2-({3-[amino (imino)methyl]phenyl}amino)-N-[2-(3,4-dihydro-2 (1H)-isoquinolinyl)-2-oxoethyl]-3-hydroxypropanamide hydrochloride] are under 90 nM and 3.95 µM.
For `CC(NCc1ccc(C(=N)N)cc1)C(=O)NCC(=O)NCCc1ccccn1` (stereo not drawn) [Example 13, 2-[({4-[amino (imino)methyl]phenyl}methyl)amino]-N-(2-oxo-2-{[2-(2-pyridinyl)ethyl]amino}ethyl)propanamide hydrochloride] the same measures were under 90 nM and over 110 µM.
For `COc1ccccc1N1CCN(C(=O)CNC(=O)CNc2cccc(C(=N)N)c2)CC1` [Example 24, 2-({3-[amino(imino)methyl]phenyl}amino)-N-(2-{4-[2-(methyloxy)phenyl]-1-piperazinyl}-2-oxoethyl)acetamide hydrochloride] the same measures were under 90 nM and 1.6 µM.
For the compound `N=C(N)c1cccc(NC(CO)C(=O)NCC(=O)NCCc2c[nH]c3ccccc23)c1` (stereo not drawn) [Example 8, 2-({3-[amino(imino)methyl]phenyl}amino)-3-hydroxy-N-(2-{[2-(1H-indol-3-yl)ethyl]amino}-2-oxoethyl)propanamide hydrochloride], the results for the 50% inhibitory concentration (IC50) (in test [1]; against factor Xa) were under 90 nM and 7.8 µM, respectively.
In the same order, the values of `COC(=O)c1ccc(C(NCc2ccc(C(=N)N)cc2)C(=O)NC(C(=O)NCCc2c[nH]c3ccccc23)C(C)C)cc1` (stereo not drawn) [Example 7, methyl 4-(1-[({4-[amino(imino)methyl]phenyl}methyl)amino]-2-{[1-({[2-(1H-indol-3-yl)ethyl]amino}carbonyl)-2-methylpropyl]amino}-2-oxoethyl)benzoate hydrochloride] are under 90 nM and over 110 µM.
Take `CC(C)C(NC(=O)C(CO)Nc1cccc(C(=N)N)c1)C(=O)NCc1ccccc1` (stereo not drawn) [Example 17, 2-{[2-({3-[amino(imino)methyl]phenyl}amino)-3-hydroxypropanoyl]amino}-3-methyl-N-(phenylmethyl)butanamide hydrochloride]: the results for the IC50 (in test [1]; at factor Xa) were under 90 nM and 7.6 µM, respectively.
In the same order, the values of `N=C(N)c1ccc(CNC(CO)C(=O)NCC(=O)NCCc2ccccn2)cc1` (stereo not drawn) [Example 20, 2-[({4-[amino(imino)methyl]phenyl}methyl)amino]-3-hydroxy-N-(2-oxo-2-{[2-(2-pyridinyl)ethyl]amino}ethyl)propanamide hydrochloride] are under 90 nM and over 110 µM.
In the same order, the values of `N=C(N)c1cccc(NC(C(=O)NCC(=O)NCCc2c[nH]c3ccccc23)c2cc[nH]n2)c1` (stereo not drawn) [Example 4, 2-({3-[amino(imino)methyl]phenyl}amino)-N-(2-{[2-(1H-indol-3-yl)ethyl]amino}-2-oxoethyl)-2-(1H-pyrazol-3-yl)acetamide hydrochloride] are under 90 nM and 26.4 µM.
In the same order, the values of `COc1ccc(CNC(=O)CNC(=O)CNc2cccc(C(=N)N)c2)cc1OC` [Example 16, 2-({3-[amino (imino)methyl]phenyl}amino)-N-[2-({[3,4-bis(methyloxy)phenyl]methyl]amino}-2-oxoethyl)acetamide hydrochloride] are under 90 nM and 9.2 µM.
Take `N=C(N)c1ccc(CNC(C(=O)NCC(=O)NCc2cccnc2)c2ccc[nH]2)cc1` (stereo not drawn) [Example 22, 2-[({4-[amino(imino)methyl]phenyl}methyl)amino]-N-{2-oxo-2-[(3-pyridinylmethyl)amino]ethyl)-2-(1H-pyrrol-2-yl)acetamide hydrochloride]: the concentration for half-maximal inhibition (IC50) is under 90 nM in test [1] and 15 µM on factor Xa.
In the same order, the values of `CC(C)C(Nc1cccc(C(=N)N)c1)C(=O)NCC(=O)NCCc1c[nH]c2ccccc12` (stereo not drawn) [Example 10, 2-({3-[amino(imino)methyl]phenyl}amino)-N-(2-{[2-(1H-indol-3-yl)ethyl]amino}-2-oxoethyl)-3-methylbutanamide hydrochloride] are under 90 nM and 55 µM.
In the same order, the values of `CCOC(=O)C(Nc1cccc(C(=N)N)c1)C(=O)NC(C(=O)NCCc1c[nH]c2ccccc12)C(C)C` (stereo not drawn) [Example 5, ethyl 2-({3-[amino(imino)methyl]phenyl}amino)-3-{[1-({[2-(1H-indol-3-yl)ethyl]amino}carbonyl)-2-methylpropyl]amino}-3-oxopropanoate hydrochloride] are under 90 nM and 5.7 µM.
Consider `N=C(N)c1cccc(NCC(=O)NCC(=O)NCc2ccccc2)c1` [Example 14, 2-({3-[amino (imino)methyl]phenyl}amino)-N-{2-oxo-2-[(phenylmethyl)amino]ethyl}acetamide hydrochloride], for which the half-maximal inhibitory concentration (IC50) in test [1] was under 90 nM; against factor Xa it was 7.15 µM.
For `N=C(N)c1cccc(NCC(=O)NCC(=O)NCCc2c[nH]c3ccccc23)c1` [Example 2, 2-({3-[amino(imino)methyl]phenyl}amino)-N-(2-{[2-(1H-indol-3-yl)ethyl]amino}-2-oxoethyl)acetamide hydrochloride] the same measures were under 90 nM and 6.7 µM.
With `CC(C)C(NC(=O)C(CO)Nc1cccc(C(=N)N)c1)C(=O)NCc1ccc2c(c1)OCO2` (stereo not drawn) [Example 18, 2-{[2-({3-[amino(imino)methyl]phenyl}amino)-3-hydroxypropanoyl]amino}-N-(1,3-benzodioxol-5-ylmethyl)-3-methylbutanamide hydrochloride], the IC50 in test [1] is under 90 nM; on factor Xa, 8.6 µM.
For `N=C(N)c1ccc(CNCC(=O)NCC(=O)N2CCN(Cc3ccc4c(c3)OCO4)CC2)cc1` [Example 23, 2-[({4-(amino(imino)methyl)phenyl)methyl)amino]-N-(2-[4-(1,3-benzodioxol-5-ylmethyl)-1-piperazinyl]-2-oxoethyl}acetamide hydrochloride] the same measures were under 90 nM and over 110 µM.
As to `CC(NC(=O)CNc1cccc(C(=N)N)c1)C(=O)NC1CCCCC1` (stereo not drawn) [Example 11, 2-{[({3-[amino(imino)methyl]phenyl}amino)acetyl]amino}-N-cyclohexylpropanamide hydrochloride], the IC50 is under 90 nM in test [1] and 4.45 µM against factor Xa.
For `N=C(N)c1cccc(NCC(=O)NCC(=O)NCCN2CCOCC2)c1` [Example 25, 2-({3-[amino(imino)methyl]phenyl}amino)-N-(2-([2-(4-morpholinyl)ethyl]amino}-2-oxoethyl)acetamide hydrochloride] the same measures were under 90 nM and 22.8 µM.
For `N=C(N)c1ccc(CNC(C(=O)NCC(=O)NCCc2ccccn2)c2ccc[nH]2)cc1` (stereo not drawn) [Example 21, 2-[({4-(amino(imino)methyl)phenyl}methyl)amino]-N-(2-oxo-2-{[2-(2-pyridinyl)ethyl]amino}ethyl)-2-(1H-pyrrol-2-yl)acetamide hydrochloride] the same measures were under 90 nM and 7.7 µM.
In the same order, the values of `N=C(N)c1cccc(NCC(=O)NCC(=O)NCCc2ccc(O)cc2)c1` [Example 9, 2-({3-[amino(imino)methyl]phenyl}amino)-N-(2-{[2-(4-hydroxyphenyl)ethyl]amino}-2-oxoethyl)acetamide hydrochloride] are under 90 nM and 2.4 µM.
For the compound `COc1ccc(CNC(=O)C(C)NC(=O)CNCc2ccc(C(=N)N)cc2)cc1OC` (stereo not drawn) [Example 6, 2-({[({4-[amino(imino)methyl]phenyl}methyl)amino]acetyl}amino)-N-{[3,4-bis(methyloxy)phenyl]methyl}propanamide hydrochloride], the IC50 in test [1] is under 90 nM; on factor Xa, over 110 µM.
In the same order, the values of `CC(C)C(NC(=O)C(CO)Nc1cccc(C(=N)N)c1)C(=O)NCCC(c1ccccc1)c1ccccc1` (stereo not drawn) [Example 19, 2-{[2-({3-[amino(imino)methyl]phenyl}amino)-3-hydroxypropanoyl]amino}-N-(3,3-diphenylpropyl)-3-methylbutanamide hydrochloride] are under 90 nM and 8.6 µM.
